Data on eight molecules can be found in publication PMC9304282, “Relating Conformational Equilibria to Conformer‐Specific Lipophilicities: New Opportunities in Drug Discovery” (Angewandte Chemie (International Ed. in English), 2021).

“And” between values parts separate entries of the source, which are not always exact repeats. Equal entries are not always repeated. Where two headings read alike, the source gives them in different places.

Data set [1] is described as follows: logP and conformer-specific logp determination by 19F NMR (octanol/water partitioning). Format: physicochemical. The following applies: for logP: n-octanol/water, octanol/water, 19F NMR. The source says:
The principle of the strategy for logp optimization, and of the direct logp measurement, is illustrated for amide rotamers (Figure 2) in slow exchange in solution, where each rotamer signal can be integrated directly. This constitutes a system with four coupled equilibria of conformers between (refers to p) and within (refers to K) the two phases (Figure 2A). Our lipophilicity measurement procedure[18] involves acquiring a ^19F NMR spectrum of each phase after phase separation (Figure 2B), and measuring integration relative to an added internal reference. Three peaks are observed: one corresponding to the reference, and two corresponding to each amide rotamer. A ρ‐value for a given rotamer in a given phase is defined as the integration ratio of the rotamer signal and that of the reference (Eq. 5). Through taking the ratio of the ρ‐values of a rotamer, Equation 6 can be obtained,[18] showing that its logp equals the known logP of the reference plus the log of the ratio of its ρ‐values. The overall logP of the amide is then determined by using the integration sum of its rotamer signals using the same equation.[18]
Linclau et al – supporting information 8
3 The logP determination by 19F NMR
Lipophilicities were determined using a previously published protocol:[1] to a 10 mL pear-shaped flask was added the compound (1.0 - 10 mg) for logP determination, the reference compound (1.0 - 10 mg, with known logP value, e.g., 2,2,2-trifluoroethanol, logP: +0.36), water (2 mL) and n-octanol (2 mL). The resulting biphasic mixture was stirred (at 600 rpm) for 2 h at 25 °C, and then left without stirring for 16 h at 25 °C to allow phase separation. An aliquot of 0.5 mL was taken from each phase using 1 mL syringes with long needles and added to two separate NMR tubes. A deuterated NMR solvent (0.1 mL, e.g., acetone-d6), or a capillary tube containing deuterated NMR solvent, was added to the NMR tubes to enable signal locking.
Because of the volatility of the used compounds, the NMR tubes were sealed using a blowtorch. For NMR samples with directly added deuterated solvent, the tubes were inverted 20 times for mixing. For 19F{1H} NMR experiments, NMR parameters were set as follows: D1 30 sec for the octanol sample, D1 60 sec for the water sample; and O1P centered between two diagnostic fluorine peaks. If needed, an increased number of transients (NS) and/or narrower spectral window (SW) for a good S/N ratio (typically >300) was applied.
After NMR data processing, integration ratios ρoct and ρaq (ρoct is defined as the integration ratio between the compound and the reference compound in the octanol sample; likewise for ρaq) were obtained, and used in the equation (logPX = logPref + log(ρoct/ρaq)) to obtain the logP value of the compound. The logP measurement of each compound was run in triplicate. LogP values of non-fluorinated compounds were taken from the literature.
The standard deviation (σ) was calculated using the formula: […]
Where xi are the individual estimated logP values and x̅ is the mean average.
(§1) Linclau et al – supporting information 21
(§2) 4.3 Detailed experimental data for the logP determinations (roct and rwat values for each
(§3) 4.3.1 Standard NMR settings
(§4) Standard NMR parameter setting: SW, 300 ppm; centered O1P; NS 64; D1 30 sec (octanol sample), D1 60 sec (water sample). Any change from standard setting was described for each compound. Unless specified otherwise 2,2,2-trifluoroethanol (logP: +0.36) was used as the reference compound. […]
(§5) Reference - 1-Fluoropropan-2-ol
(§6) Compound Experimental ρ /ρ LogP Average Error
(§7) (octanol/water) oct wat LogP
(§8) Ratio of E:Z-rotamers, and K value:
(§9) Octanol phase Water phase
(§10) Conformation ρ /ρ LogP Average Error

A short description of data set [2]: amide rotamer ratio (K value) in octanol and water phase by 19F NMR integration. Format: physicochemical. The following applies: experimental.
From the text: In the closed equilibrium system shown in Figure 2A, the ratio of the p‐values equates to the ratio of the K‐values ((Eq. 7), Figure 2C), so that the difference in logp values equals the log of the K‐value ratio (Eq. 8). In other words: the lipophilicity difference between two conformers is directly related to the change between their equilibrium concentration ratios in water and octanol. The K‐values can be obtained through integration measurement (Eq. 8).
The ρ and K determinations require assignment of each fluorine signal in each phase to a particular rotamer, as it was observed that the relative position of cis‐and trans‐amide rotamer resonances in the ^19F NMR spectrum in octanol was not always the same as that in water. Conformer signal assignment in the water phase is easily accomplished by a control experiment using (octanol‐saturated) D2O by standard NOESY analysis combined with peak integration (see Supporting Information). As perdeuterated octanol is very expensive, this was experimentally non‐trivial for cases when the huge octanol solvent R‐CH 2OH signal and its ^13C satellites obscure proton resonances that are required for rotamer assignment. Solvent suppression techniques are impractical, and skew the integration ratio. We therefore introduced 1,1‐dideuteriooctanol (C7H15CD2OH), which considerably facilitated rotamer assignment. It is prepared on large scale by a modified Bouveault–Blanc reduction[20] of cheap methyl octanoate with EtOD as deuterium source (see Supporting Information).
as §1, §2, §3, §4, §5, §6, §7, §8, §9, §10

[3] abbreviates: difference between trans and cis rotamer logp.
The mark [4] stands for this setting: unrounded mean, read-out: logP, mean as printed in column Error (±σ).
[5] abbreviates: unrounded mean, read-out: logp cis rotamer, mean as printed in column Error (±σ).
Setting [6] is: unrounded mean, read-out: logp trans rotamer, mean as printed in column Error (±σ).
[7] abbreviates: 25 °C, sum of rotamer signals, read-out: logP (macroscopic lipophilicity, average).
The mark [8] stands for this setting: difference between E and Z rotamer logp.
The mark [9] stands for this setting: unrounded mean, read-out: logp E rotamer, mean as printed in column Error (±σ).
The mark [10] stands for this setting: unrounded mean, read-out: logp Z rotamer, mean as printed in column Error (±σ).

As for `CC(=O)N1C[C@H](F)C[C@H]1C(=O)N(C)C` [6b, N-acetyl-(2S,4R)-4-fluoroproline dimethyl amide], the Δlogp in data set [1] (setting [3]) is on record as -0.27. Further, the logP in data set [1] (cis amide rotamer, read-out: logp (cis)-rotamer (conformer-specific, average)) is -1.39; in data set [1] (setting [4]), -1.16; in data set [1] (setting [5]), -1.39; in data set [1] (setting [6]) it was -1.12; in data set [1] (setting [7]) it was -1.16. In addition, in data set [2] (octanol phase), the “Kt/c oct (ratio of trans/cis rotamers)” value turned out to be 8.29. In addition, the Ratio c/t is given as 0.12 in data set [2] (octanol phase) and 0.23 in data set [2] (water phase). Besides, in data set [2] (water phase), the “Kt/c wat (ratio of trans/cis rotamers)” value came out at 4.44.

For the molecule `CC(=O)N1CCCC(F)C1` (stereo not shown) [compound 4, N-Acetyl-3-fluoropiperidine], in data set [1] (setting [8]), the Δlogp is -0.19. For the same molecule, the logP is -0.1 in data set [1] (setting [4]), -0.015 in data set [1] (setting [9]), -0.198 in data set [1] (setting [10]) and -0.1 in data set [1] (setting [7]). Moreover, in data set [2] (octanol phase), the “KE/Z oct (ratio of E:Z rotamers)” value was 1.43. The figures for the “Ratio Z/E (K value in parentheses)” value in data set [2] (octanol phase) and in data set [2] (water phase) were 0.70 and 1.05, respectively. Further, in data set [2] (water phase), the “KE/Z wat (ratio of E:Z rotamers)” value worked out at 0.95.

Turning to `CC(=O)N1CC(F)(F)C[C@H]1C(=O)N(C)C` [7b, N-Acetyl-4,4-F2Pro-NMe2], the Δlogp in data set [1] (setting [3]) is reported as -0.11. In addition, the logP was -0.888 in data set [1] (setting [4]), -0.978 in data set [1] (setting [5]), -0.866 in data set [1] (setting [6]) and -0.89 in data set [1] (setting [7]). Further, the “Kt/c oct (ratio of trans/cis rotamers)” value in data set [2] (octanol phase) amounted to 4.76. The Ratio c/t in data set [2] (octanol phase) stood at 0.21; in data set [2] (water phase) it was 0.27. In addition, the “Kt/c wat (ratio of trans/cis rotamers)” value in data set [2] (water phase) came out at 3.68.

Molecule `COC(=O)[C@@H]1C[C@@H](F)CN1C(C)=O` [6a, N-acetyl-4R-FPro-OMe] yielded a Δlogp in data set [1] (setting [3]) of 0.09. The logP is -0.605 in data set [1] (setting [4]), -0.529 in data set [1] (setting [5]), -0.618 in data set [1] (setting [6]) and -0.6 in data set [1] (setting [7]). The “Kt/c oct (ratio of trans/cis rotamers)” value in data set [2] (octanol phase) was 5.29. Also, the values for the Ratio c/t in data set [2] (octanol phase) and in data set [2] (water phase) were 0.19 and 0.15, respectively. In addition, in data set [2] (water phase), the “Kt/c wat (ratio of trans/cis rotamers)” value is listed as 6.49.

In turn, `CC(=O)N1CCC(F)C1` (stereo not shown) [compound 2, N-Acetyl-3-fluoropyrrolidine] returned a Δlogp in data set [1] (setting [8]) of 0.06. Moreover, the logP in data set [1] (setting [4]) is -0.568; in data set [1] (setting [9]), -0.602; in data set [1] (setting [10]) it was -0.538; in data set [1] (setting [7]), -0.57. In addition, the “KE/Z oct (ratio of E:Z rotamers)” value in data set [2] (octanol phase) turned out to be 0.75. Besides, the “Ratio Z/E (K value in parentheses)” value in data set [2] (octanol phase) is given as 1.33; in data set [2] (water phase), 1.16. Further, the “KE/Z wat (ratio of E:Z rotamers)” value in data set [2] (water phase) was 0.86.

For `CC(=O)N1CCCC(F)(F)C1` [compound 5, N-Acetyl-3,3-difluoropiperidine], the Δlogp in data set [1] (setting [8]) was -0.21. For the same molecule, the logP in data set [1] (setting [4]) was found to be 0.272; in data set [1] (setting [9]), 0.378; in data set [1] (setting [10]), 0.174; in data set [1] (setting [7]), 0.27. Further, the “KE/Z oct (ratio of E:Z rotamers)” value in data set [2] (octanol phase) is listed as 1.17. In addition, the “Ratio Z/E (K value in parentheses)” value in data set [2] (octanol phase) is 0.85; in data set [2] (water phase), 1.37. Further, in data set [2] (water phase), the “KE/Z wat (ratio of E:Z rotamers)” value is listed as 0.73.

On to `COC(=O)[C@@H]1CC(F)(F)CN1C(C)=O` [7a, N-Acetyl-4,4-F2Pro-OMe], for which the logP is -0.196 in data set [1] (setting [4]), -0.035 in data set [1] (setting [5]), -0.256 in data set [1] (setting [6]) and -0.2 in data set [1] (setting [7]). Besides, the “Kt/c oct (ratio of trans/cis rotamers)” value in data set [2] (octanol phase) is reported as 2.09. The “Kt/c wat (ratio of trans/cis rotamers)” value in data set [2] (water phase) came to 3.48.

As to `CC(=O)N1CCC(F)(F)C1` [compound 3, N-Acetyl-3,3-difluoropyrrolidine], the Δlogp in data set [1] (setting [8]) turned out to be 0.06. Further, the logP was -0.117 in data set [1] (setting [4]), -0.153 in data set [1] (setting [9]), -0.089 in data set [1] (setting [10]) and -0.12 in data set [1] (setting [7]). Further, the “KE/Z oct (ratio of E:Z rotamers)” value in data set [2] (octanol phase) is 0.72. Also, the “Ratio Z/E (K value in parentheses)” value was 1.4 and 1.39 in data set [2] (octanol phase); 1.2 and 1.19 in data set [2] (water phase). Besides, the “KE/Z wat (ratio of E:Z rotamers)” value in data set [2] (water phase) came to 0.84.
